We go through one molecule from article PMC6941661 (Cell host & microbe, 2019).

The subject of the assay is N9 NA of A/Shanghai/2/2013 (SH13) (H7N9), virus A/Shanghai/2/2013 (H7N9)-PR8-IDCDC-RG32A. The class given is biochemical, Influenza A virus (A/Shanghai/2/2013(H7N9)).

One may read the IC50 as the point on the concentration scale where inhibition reaches its midpoint. A high value points to weaker potency in that assay. In turn, `CC(=O)N[C@H]1[C@H]([C@H](O)[C@H](O)CO)OC(C(=O)O)=C[C@@H]1N=C(N)N` [zanamivir] had a concentration for half-maximal inhibition (IC50) of 7.6 nM. In other words, the single-digit nanomolar range.
